Data: patent US8546390B2, “6-(pyrrolopyridinyl) pyrimidin-2-ylamine derivatives and the use thereof for the treatment of cancer and AIDS” (Merck Patent GmbH, priority 2008, dated 2013)
Read-outs that look alike come from different tables or passages of the source.

Columns and labels:
[1] = target: T1, PDK1 (Homo sapiens, UniProt O15530); assay: Test for the inhibition of PDK1 (flashplate, 33P-ATP); type: biochemical
T1 construct: His6 (N)
T1 sequence (O15530 51-556): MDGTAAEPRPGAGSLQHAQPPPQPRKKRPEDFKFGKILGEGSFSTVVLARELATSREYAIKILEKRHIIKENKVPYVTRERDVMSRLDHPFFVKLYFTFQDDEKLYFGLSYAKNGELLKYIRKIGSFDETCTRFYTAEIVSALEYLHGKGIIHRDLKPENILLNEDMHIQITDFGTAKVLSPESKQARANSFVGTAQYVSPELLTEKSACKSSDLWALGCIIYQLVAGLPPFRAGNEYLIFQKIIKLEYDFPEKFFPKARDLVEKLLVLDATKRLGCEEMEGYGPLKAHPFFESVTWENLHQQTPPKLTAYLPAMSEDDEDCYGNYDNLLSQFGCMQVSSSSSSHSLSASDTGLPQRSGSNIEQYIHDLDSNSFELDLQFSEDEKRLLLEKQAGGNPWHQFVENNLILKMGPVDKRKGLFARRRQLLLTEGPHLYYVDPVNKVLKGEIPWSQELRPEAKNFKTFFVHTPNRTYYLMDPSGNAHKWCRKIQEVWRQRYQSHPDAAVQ
Procedure: NO.: 1, (400 Nm), 4 μm ATP (with 0.2 μCi of ^33P-ATP/well) and the test substance in 50 μl of conventional experimental solution per well are incubated at 30° C. for 60 min. The test substances are employed in corresponding concentrations (if desired in a dilution series). The control is carried out without test substance. The reaction is stopped using standard methods and washed. The activity of the kinase is measured via the incorporated radioactivity in top count. In order to determine the non-specific kinase reaction (blank value), the experimental batches are carried out in the presence of 100 nM staurosporin.
The radioactivity (decompositions per minute) of the blank value (no use of test substance in the presence of staurosporin) is subtracted from all other radioactivity values. The controls (kinase activity without test substance) are set equal to 100 percent and all other radioactivity values (after subtracting the blank value) are expressed set in relation thereto (for example in % of the control).

[2] = system: A2780 (ovary); assay: Inhibition of the proliferation/vitality of tumour cells (Alamar Blue test); type: cell-based; details: Homo sapiens, 96 h, A2780 ovary cell line, 4 days cultivation with test substance
Procedure: In the present experiment description, the inhibition of tumour cell proliferation/tumour cell vitality by active ingredients is described. The cells are sown in a suitable cell density in microtitre plates (96-well format) and the test substances are added in the form of a concentration series. After four further days of cultivation in serum-containing medium, the tumour cell proliferation/tumour cell vitality can be determined by means of an Alamar Blue test system.
The cells are cultivated in medium. At intervals of several days, the cells are detached from the culture dishes with the aid of trypsin solution and sown in suitable dilution in fresh medium. The cells are cultivated at 37° Celsius and 10% CO2.
A defined number of cells (for example 2000 cells) per culture/well in a volume of 180 μl of culture medium are sown in microtitre plates (96 well cell-culture plates) using a multichannel pipette. The cells are subsequently cultivated in a CO2 incubator (37° C. and 10% CO2).
The test substances are dissolved, for example, in DMSO and subsequently employed in corresponding concentration (if desired in a dilution series) in the cell culture medium. The dilution steps can be adapted depending on the efficiency of the active ingredients and the desired spread of the concentrations. Cell culture medium is added to the test substances in corresponding concentrations. The addition of the test substances to the cells can take place on the same day as the sowing of the cells. To this end, in each case 20 μl of substance solution from the predilution plate are added to the cultures/wells. The cells are cultivated for a further 4 days at 37° Celsius and 10% CO2.
In each case, 20 μl of Alamar Blue reagent are added per well, and the microtitre plates are incubated, for example, for a further seven hours in a CO2 incubator (at 37° C. and 10% CO2). The plates are measured in a reader with a fluorescence filter at a wavelength of 540 nm. The plates can be shaken gently immediately before the measurement.
The absorbance value of the medium control (no cells and test substances used) is subtracted from all other absorbance values. The controls (cells without test substance) are set equal to 100 percent, and all other absorbance values are set in relation thereto (for example in % of control): Calculation:
IC50 values (50% inhibition) are determined with the aid of statistics programs, such as, for example, RS1.

[3] = His6-PDK1(Δ1-50) 3.4 nM, 30° C., 60 min, read-out: IC50 PDK1

4-(3-aminopropyl)-6-[5-(1-methyl-1H-pyrazol-4-yl)-1H-pyrrolo[2,3-b]pyridin-3-yl]pyrimidin-2-ylamine [Compound A42]
IC50 [1, 3]: 0.01 to 1 µM

CCCCCc1cc(-c2c[nH]c3ncccc23)nc(N)n1 [Compound A6, 4-Pentyl-6-(1H-pyrrolo[2,3-b]pyridin-3-yl)pyrimidin-2-ylamine]
IC50 [2]: 1 to 10 µM

CCCC1CCC(c2cc(-c3c[nH]c4ncccc34)nc(N)n2)CC1 (stereo not shown) [Compound A8]
IC50 [2]: 1 to 10 µM

CCCc1cc(-c2c[nH]c3ncccc23)nc(N)n1 [Compound A3, 4-Propyl-6-(1H-pyrrolo[2,3-b]pyridin-3-yl)pyrimidin-2-ylamine]
IC50 [2]: 0.01 to 1 µM

CCc1cc(-c2c[nH]c3ncc(-c4cnn(C)c4)cc23)nc(N)n1 [Compound A45, 4-ethyl-6-[5-(1-methyl-1H-pyrazol-4-yl)-1H-pyrrolo[2,3-b]pyridin-3-yl]pyrimidin-2-ylamine]
IC50 [1, 3]: 0.01 to 1 µM

CCc1cc(-c2c[nH]c3ncc(-c4cnn(CC(C)C)c4)cc23)nc(N)n1 [Compound A66, 4-Ethyl-6-[5-(1-isobulyl-1H-pyrazol-4-yl)-1H-pyrrolo[2,3-b]pyridin-3-yl]-pyrimidin-2-ylamine]
IC50 [1, 3]: 0.01 to 1 µM

CCc1cc(-c2c[nH]c3ncc(-c4cn[nH]c4)cc23)nc(N)n1 [Compound A60, 4-Ethyl-6-[5-(1H-pyrazol-4-yl)-1H-pyrrolo[2,3-b]pyridin-3-yl]pyrimidin-2-ylamine]
IC50 [1]: 0.01 to 1 µM

CCCCc1cc(-c2c[nH]c3ncccc23)nc(N)n1 [Compound A1, 4-butyl-6-(1H-pyrrolo[2,3-b]pyridin-3-yl)pyrimidin-2-ylamine]
IC50 [2]: 0.01 to 1 µM

CCc1cc(-c2c[nH]c3ncc(Br)cc23)nc(N)n1 [Compound A32]
IC50 [1, 3]: 0.01 to 1 µM

CCc1cc(-c2c[nH]c3ncc(-c4ccco4)cc23)nc(N)n1 [Compound A49, 4-Ethyl-6-(5-furan-2-yl-1H-pyrrolo[2,3-b]pyridin-3-yl)pyrimidin-2-ylamine]
IC50 [1, 3]: 0.01 to 1 µM

CCc1cc(-c2c[nH]c3ncccc23)nc(N)n1 [Compound A5, 4-ethyl-6-(1H-pyrrolo[2,3-b]pyridin-3-yl)pyrimidin-2-ylamine]
IC50 [2]: 0.01 to 1 µM

CCc1cc(-c2c[nH]c3ncc(-c4cnn(CCOC)c4)cc23)nc(N)n1 [Compound A56, 4-Ethyl-6-{5-[1-(2-methoxyethyl)-1H-pyrazol-4-yl]-1H-pyrrolo[2,3-b]pyridin-3-yl}pyrimidin-2-ylamine]
IC50 [1, 3]: 0.01 to 1 µM

Nc1nc(-c2ccccc2)cc(-c2c[nH]c3ncccc23)n1 [Compound A2, 4-Phenyl-6-(1H-pyrrolo[2,3-b]pyridin-3-yl)pyrimidin-2-ylamine]
IC50 [2]: 0.01 to 1 µM

CCc1cc(-c2c[nH]c3ncc(-c4ccc(N)nc4)cc23)nc(N)n1 [Compound A48, 4-[5-(6-Aminopyridin-3-yl)-1H-pyrrolo-[2,3-b]pyridin-3-yl]-6-ethylpyrimidin-2-ylamine]
IC50 [1, 3]: 0.01 to 1 µM

NCCCc1cc(-c2c[nH]c3ncc(-c4ccco4)cc23)nc(N)n1 [Compound A43, 4-(3-Aminopropyl)-6-(5-furan-2-yl-1H-pyrrolo[2,3-b]pyridin-3-yl)pyrimidin-2-ylamine]
IC50 [1, 3]: 0.01 to 1 µM

NCCCc1cc(-c2c[nH]c3ncccc23)nc(N)n1 [Compound A16, 4-(3-Aminopropyl)-6-(1H-pyrrolo[2,3-b]pyridin-3-yl)pyrimidin-2-ylamine]
IC50 [1, 3]: 0.01 to 1 µM
